In patent publication US9173935B2, “Phospholipid drug analogs” (Telormedix SA, priority 2010, dated 2015):

How the values were obtained:
[1] = tested on: HLA-DR+/CD11c-/CD123+ pDCs; assay: FACS analysis of plasmacytoid DC activation in whole blood; type: cell-based, human; conditions: 24 hours, 0.1 and 0.5 uM, three donors
Method: A flow cytometric analysis was performed on whole blood from three donors after treatment with two compound concentrations for 24 h. The FACS analysis for donor 1 and donor 2 was made on another day than donor 3. The compound concentrations were as follows:
The FACS analysis was used to identify whether the test compounds could induce activation of B cells, and two different subsets of dendritic cells, namely the myeloid CD11c+/CD123− DCs and the plasmacytoid CD11c−/CD123+ DCs. The following markers were studied to identify the activation status of the different subsets:
The FACS staining was performed according to the manufacturer's instructions. Lysis of red blood cells was performed before FACS staining in order to minimize auto-florescence. To include as many B cells and DCs in the study as possible the FACS analyses were performed on 500,000 cells in total for each staining. A P1 gate was set only to include relevant cells on FSC vs. SSC (see FIGS. 12-15). The results of the individual analysis were present as Mean Fluorescence Intensity
The analysis of pDCs was based on HLA-DR+/CD11c−/CD123+ cells, thus all analyzed cells were included in the HLA-DR+ (P3) gate and CD11c−/CD123+(Q1) gate. (FIGS. 13-15).

[2] = tested on: Salmonella typhimurium TA1535, TA1537, TA98, TA100; assay: Bacterial mutation assay, Salmonella typhimurium; conditions: absence or presence of S9 metabolism
Method: (§1) The five tester strains TA1535, TA1537, TA98, TA100 and WP2 uvrA were used. Experiments were performed both in the absence and presence of metabolic activation, using liver S9 fraction from rats pre-treated with phenobarbitone and betanaphthoflavone. SC12 was used as a solution in dimethylsulfoxide (DMSO).

[3] = tested on: Escherichia coli WP2 uvrA; assay: Bacterial mutation assay, Escherichia coli; conditions: absence or presence of S9 metabolism
Method: as §1

[4] = Single dose intravenous acute toxicity study in rats; type: in vivo, Sprague Dawley rat; conditions: for Mortality: preliminary phase, one male and one female; for Mortality and signs of toxicity: main phase
Method: An additional group, similarly composed, received the vehicle alone and acted as a control. […] Clinical signs were limited to piloerection and reduced activity, observed on the day of dosing.
In the main phase, 5 male and 5 female animals were dosed at 90 mg/kg and observed for a period of 14 days. A second group, similarly constituted, received the vehicle alone and acted as control. […] In addition, one male and one female dosed at 90 mg/kg were found dead on Day 2 of the study. Twitches, ataxia, piloerection, reduced activity and hunched posture were the major signs observed in animals before death. […] Piloerection was observed up to Day 3 of the study. A second group, similarly composed, was dosed at 80 mg/kg.

[5] = tested on: receptors associated with pain-related syndromes (e.g. adenosine and sodium channel); assay: Radioligand binding assay among 73 primary molecular targets; conditions: SC12 at fixed concentration of 30 microM
[6] = Intravenous pharmacokinetics in the mouse; conditions: for Plasma concentration Mean ± S.D.: 1 mg/kg IV
Method: An IV bolus was administered into the caudal vein at a dose of 1 mg/kg in […]. The compound weight was 2.08/10.04 ml. 24 mice were studied. […] […] Animals were sacrificed using ethyl ether at the conclusion of the experiment.
Sample preparation: In a Sirocco filter plate, 100 microliters of plasma were added to 300 microliters of ACN/MeOH spiked with 5 microliters of IS (IV298 10 micrograms per ml) plus 10 microliters of 5% H3PO4. The plate was shaken for 10 minutes at 80 rpm and then filtered under vacuum for 5 minutes.
Analytical method: LC/MS/MS: Premiere XE, Eluent: water (A) MeOH(B) plus 0.1% HCOOH gradient. 15% B to 100% B from 0.1 to 0.5, then isocratic 100% B up to 1.5 minutes, flow 0.8 ml/min; Column Acquity UPLC BEH C18 1.7 microm 2.1×50 mm, injection volume of 5 microliters in a T column at 50° C. ESI positive, MRM, Extractor 5V; Capillary 3.5 kV; T source 115° C.; T desolv. 450° C.
Data analysis: Non-compartmental analysis WinNonlin 5.1; linear trapezoidal, uniform weight.

CYP2C9 = CYP2C9 (Homo sapiens (Human), UniProt P11712); assay: Fluorescent High Throughput P450 assay, CYP2C9; type: biochemical; conditions: substrate MFC; read-out: CYP2C9 IC50 (Mean ± S.D.)
Method: (§2) Inhibition of the P450 isoforms was measured in specific assays using specific substrates that become fluorescent upon CYP metabolism. Compounds, dissolved in ACN (acetonitrile) (CYP2E1, CYP2C8, CYP2B6, CYP3A5) or DMSO (all remaining isoforms), were tested in duplicate (n=2) in concentration-response curves (eight concentrations) in a 96-well plate containing incubation/NADPH regenerating buffer. Specific isoenzymes and substrates were added and incubated at 37° C. Reactions were terminated at different times, depending on the assays, and plates read on a Fluoroskan Ascent at the appropriate emission/excitation wavelengths. Concentration-response curves performed in duplicate for known inhibitors for each isoenzyme were tested in every assay as positive control.

CYP2E1 = CYP2E1 (Homo sapiens (Human), UniProt P05181); assay: Fluorescent High Throughput P450 assay, CYP2E1; type: biochemical; conditions: substrate MFC; read-out: CYP2E1 IC50 (Mean ± S.D.)
Method: as §2

CYP2C8 = CYP2C8 (Homo sapiens (Human), UniProt P10632); assay: Fluorescent High Throughput P450 assay, CYP2C8; type: biochemical; conditions: substrate DBF; head of Table 31 prints CYP2CB; read-out: CYP2C8 IC50 (Mean ± S.D.)
Method: as §2

[7] = tested on: AY-27 rat bladder cancer cell-line; conditions: in vivo

CYP2E1, sequence (P05181 whole entry, looked up): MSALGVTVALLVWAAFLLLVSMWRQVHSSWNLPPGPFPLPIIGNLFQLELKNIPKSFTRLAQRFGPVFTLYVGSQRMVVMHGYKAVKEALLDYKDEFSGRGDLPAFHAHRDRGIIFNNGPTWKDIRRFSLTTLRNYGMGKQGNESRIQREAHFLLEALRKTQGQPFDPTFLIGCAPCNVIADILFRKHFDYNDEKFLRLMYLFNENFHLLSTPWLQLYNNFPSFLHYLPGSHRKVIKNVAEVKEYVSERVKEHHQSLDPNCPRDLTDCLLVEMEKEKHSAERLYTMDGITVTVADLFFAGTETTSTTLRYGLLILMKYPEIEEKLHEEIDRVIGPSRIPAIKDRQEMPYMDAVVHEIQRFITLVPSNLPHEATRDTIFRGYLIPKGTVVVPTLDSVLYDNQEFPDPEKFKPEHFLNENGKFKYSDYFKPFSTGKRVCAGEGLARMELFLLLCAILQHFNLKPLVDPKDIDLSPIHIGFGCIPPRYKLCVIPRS
CYP2C8, sequence (P10632 whole entry, looked up): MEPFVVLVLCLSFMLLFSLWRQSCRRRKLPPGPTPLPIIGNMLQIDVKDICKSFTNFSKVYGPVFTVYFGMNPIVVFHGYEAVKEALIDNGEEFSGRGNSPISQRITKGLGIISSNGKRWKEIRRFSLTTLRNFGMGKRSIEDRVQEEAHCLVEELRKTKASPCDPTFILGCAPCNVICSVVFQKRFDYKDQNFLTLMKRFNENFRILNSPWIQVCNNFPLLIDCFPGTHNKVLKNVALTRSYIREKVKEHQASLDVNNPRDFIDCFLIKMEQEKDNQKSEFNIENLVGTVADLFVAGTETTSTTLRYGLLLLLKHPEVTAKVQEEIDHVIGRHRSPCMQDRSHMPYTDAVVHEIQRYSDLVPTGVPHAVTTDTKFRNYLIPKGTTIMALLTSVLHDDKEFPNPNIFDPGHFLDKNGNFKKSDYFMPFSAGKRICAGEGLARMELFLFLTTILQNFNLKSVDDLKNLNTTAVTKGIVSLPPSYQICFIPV
CYP2C9, sequence (P11712 whole entry, looked up): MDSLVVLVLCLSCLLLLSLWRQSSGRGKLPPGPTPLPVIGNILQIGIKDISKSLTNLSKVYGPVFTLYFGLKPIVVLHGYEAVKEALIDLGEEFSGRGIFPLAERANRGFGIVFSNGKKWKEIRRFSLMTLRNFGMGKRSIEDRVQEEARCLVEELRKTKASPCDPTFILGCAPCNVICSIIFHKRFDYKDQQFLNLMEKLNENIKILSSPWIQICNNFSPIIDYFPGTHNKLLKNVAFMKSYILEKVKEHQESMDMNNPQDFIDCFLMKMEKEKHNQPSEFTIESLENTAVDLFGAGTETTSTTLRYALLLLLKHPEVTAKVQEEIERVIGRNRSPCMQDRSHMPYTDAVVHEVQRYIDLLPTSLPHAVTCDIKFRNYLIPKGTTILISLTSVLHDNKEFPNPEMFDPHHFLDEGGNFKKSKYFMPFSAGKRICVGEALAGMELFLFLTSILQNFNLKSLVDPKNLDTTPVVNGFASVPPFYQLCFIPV

Q: For `CCCCCCCCCCCC(=O)OCC(COP(=O)(O)OCCNC(=O)c1ccc(Cn2c(=O)[nH]c3c(N)nc(OCCOC)nc32)cc1)OC(=O)CCCCCCCCCCC` (centres unmarked) [SC12], which “CD80 expression on pDCs” value [1] is on record?
A: Its value is “induces a slightly higher CD80 expression than compound A”.

Q: And the “CD86 expression on pDCs” value [1]?
A: Its value is “tendency to induce higher CD86 expression than compound A”.

Q: And the “Toxicity to tester strains” value ([2]; 50.0-5000 micrograms/plate)?
A: The value was “No toxicity was observed”.

Q: What about the Reverse mutation ([2]; up to 5000 micrograms/plate) of the same molecule?
A: The Reverse mutation was “does not induce reverse mutation”.

Q: And the “Toxicity to tester strains” value ([3]; 50.0-5000 micrograms/plate)?
A: The value was “No toxicity was observed”.

Q: What about the Reverse mutation ([3]; up to 5000 micrograms/plate) of the same molecule?
A: The Reverse mutation was “does not induce reverse mutation”.

Q: And the Mortality ([4]; 76 mg/kg i.v.)?
A: The Mortality was “No mortality occurred”.

Q: And the “Mortality and signs of toxicity” value ([4]; 80 mg/kg i.v.)?
A: Its value is “no mortality and no signs of toxicity”.

Q: What about the “Mortality and signs of toxicity” value ([4]; 90 mg/kg i.v., 5 male and 5 female) of the same molecule?
A: The value was “induced mortality or significant signs of toxicity”.

Q: What about the Mortality ([4]; 100 mg/kg i.v.) of the same molecule?
A: Its Mortality is “Both animals died at dosing”.

Q: And the Maximum tolerated dose ([4]; single intravenous dose)?
A: The Maximum tolerated dose was 80 mg/kg.

Q: And the “Binding to receptors associated with pain-related syndromes” value [5]?
A: Its value is “did not bind”.

Q: What about the “AUC INF obs” value ([6]; 1 mg/kg IV bolus, plasma) of the same molecule?
A: The value was 12878 ng·min/mL.

Q: What about the AUClast ([6]; 1 mg/kg IV bolus, plasma) of the same molecule?
A: The AUClast was 11744 ng·min/mL.

Q: And the C0 ([6]; 1 mg/kg IV bolus, plasma)?
A: The C0 was 2664 ng/mL.

Q: And the CI ([6]; 1 mg/kg IV bolus, plasma)?
A: Its CI is 77.7 mL/min/kg.

Q: What about the Clast ([6]; 1 mg/kg IV bolus, plasma) of the same molecule?
A: Its Clast is 6 ng/mL.

Q: And the Cmax ([6]; 1 mg/kg IV bolus, plasma)?
A: Its Cmax is 541 ng/mL.

Q: What about the MRT ([6]; 1 mg/kg IV bolus, plasma) of the same molecule?
A: The MRT was 32 min.

Q: What about the “T ½” value ([6]; 1 mg/kg IV bolus, plasma) of the same molecule?
A: The value was 130 min.

Q: And the Tlast ([6]; 1 mg/kg IV bolus, plasma)?
A: Its Tlast is 120 min.

Q: And the Tmax ([6]; 1 mg/kg IV bolus, plasma)?
A: Its Tmax is 5 min.

Q: What about the Vss ([6]; 1 mg/kg IV bolus, plasma) of the same molecule?
A: Its Vss is 2.5 L/kg.

Q: What about the “Plasma concentration Mean ± S.D.” value ([6]; 5 min) of the same molecule?
A: The value was 540.70 ± 179.99 ng/mL.

Q: And the “Plasma concentration Mean ± S.D.” value ([6]; 15 min)?
A: Its value is 22.27 ± 3.16 ng/mL.

Q: And the “Plasma concentration Mean ± S.D.” value ([6]; 30 min)?
A: Its value is 10.00 ± 1.68 ng/mL.

Q: And the “Plasma concentration Mean ± S.D.” value ([6]; 60 min)?
A: Its value is 7.62 ± 0.72 ng/mL.

Q: And the “Plasma concentration Mean ± S.D.” value ([6]; 120 min)?
A: Its value is 6.05 ± 0.78 ng/mL.

Q: What about the “Plasma concentration Mean ± S.D.” value ([6]; 240 min, LLOQ 5 ng/ml) of the same molecule?
A: Its value is “<LLOQ”.

Q: What about the “Plasma concentration Mean ± S.D.” value ([6]; 480 min, LLOQ 5 ng/ml) of the same molecule?
A: The value was “<LLOQ”.

Q: What about the “Plasma concentration Mean ± S.D.” value ([6]; 1440 min, LLOQ 5 ng/ml) of the same molecule?
A: Its value is “<LLOQ”.

Q: And the IC50 (CYP2C9)?
A: Its IC50 is 33.4 ± 0.3 µM.

Q: What about the IC50 (CYP2E1) of the same molecule?
A: The IC50 was 9.2 ± 0.1 µM.

Q: What about the IC50 (CYP2C8) of the same molecule?
A: Its IC50 is greater than 100 µM.

Q: What about the Signs of toxicity [7] of the same molecule?
A: The Signs of toxicity was “No signs of toxicity”.
